Laboratory results from paper PMC6680510, “Benzotriazine Di-Oxide Prodrugs for Exploiting Hypoxia and Low Extracellular pH in Tumors” (Molecules, 2019).
“And” between values parts separate entries of the source, which are not always exact repeats. Identical values can stand only once. Like-named read-outs stand apart in the source and are kept apart here.

What was measured:
FaDu cells = experiment: IC50 assay (inhibition of proliferation, 4 h exposure, SRB); format: cell-based; details: for IC50: Homo sapiens, 4 h
[1] = One-electron reduction potentials by pulse radiolysis; format: physicochemical; details: pH 7.0, equilibrium with redox indicator shown in square brackets
Outline: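 Redox equilibria at pH 7.0 (2.5 mM phosphate) established within 50 μs between one-electron reduced compound and viologen references MV^2+, TQ^2+ or V21^2+, generated by 4 MeV linac pulse radiolysis with time-resolved optical absorption. E^0′ vs NHE derived via Nernst equation from equilibrium constants, corrected for ionic strength.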

[2] = Solubility in AlphaMEM + 5% FBS, pH 7.4; details: culture medium (AlphaMEM + 5% FBS), pH 7.4, plasma or biological fluid, kinetic from dmso stock
SiHa cells [3] = experiment: Effect of phenylpyruvate (MCT pan-inhibition) on cytotoxicity under anoxia; details: anoxic SiHa cells
Experimental: Effect of phenylpyruvate (PPV, 100 or 500 μM) on proliferation of SiHa cells following 4 h
exposure under anoxia to PPV alone (A) or with cmpd 4a at pHe 7.4 (B) or pHe 6.5 (C). 3000 cells/well
were seeded in 96 well plates, and IC 50 values determined as in Figure S6. Each data point is mean ±
SEM for three replicate cultures in the same experiment.

SiHa cells [4] = experiment: Metabolism and uptake of ester 4b in anoxic single cell suspensions; format: in vitro ADME; details: anoxic SiHa suspensions after addition of 4b (150 μM), at 30 min
Description: If the anionic sidechain of the BTO acids results in low intracellular concentrations, with reductive metabolism occurring largely at the cell surface, the corresponding esters would be expected to provide improved delivery to the intracellular compartment (consistent with their higher cytotoxic potencies, as noted in Section 2.5). To test this, we compared the metabolism of ester 4b (Figure 7A) with its corresponding acid 4a (Figure 7B) by monitoring extracellular concentrations in anoxic SiHa suspensions. The rates of metabolism of both compounds were unaffected by pHe, consistent with the results for 4a in Figure 5B. The ester was metabolized more rapidly than the acid, with only a trace of acid 4a detected transiently as an extracellular metabolite (Figure 7A). The major metabolites were the less polar 1-oxide, 15a, and the 1-oxide of the ester, 16a. In separate experiments with higher initial concentrations of 4b, 15a was again the main extracellular metabolite (Figure 7C, left). […] Compound 4b itself was not detected in the intracellular samples, presumably reflecting a lack of retention in cells and the very low intracellular volume, which will compromise analytical sensitivity (only 2 × 10^6 cells were collected for each analysis in this experiment).
Figure 7 Metabolism of BTO ester 4b and the corresponding acid 4a by anoxic SiHa single cell suspensions (2 × 10^6 cells/mL). (A) Extracellular concentrations following the addition of 4b (50 μM). (B) Extracellular concentrations following the addition of 4a (50 μM). (C) Extracellular (left) and intracellular (right) concentrations following the addition of 4b (150 μM). Values are means and errors are SEM for 3 replicate cultures.

SiHa cells [5] = experiment: Cellular uptake in stirred aerobic single cell suspensions (HPLC, 3H-mannitol correction)
SiHa and SiHa/POR cells = experiment: IC50 in SiHa versus SiHa/POR cultures under anoxia; format: cell-based; details: 4 h under anoxia, pHe 7.4
Experimental: The lack of effect of POR over-expression on the reductive metabolism of the BTO acids in intact cells led us to compare the cytotoxicities of SN30000 (2), 4a, and 7a in SiHa/POR, and the parental line, under anoxia (Figure 6).
Drug exposure was for 4 h under anoxia, at pHe 7.4, with regrowth under aerobic conditions for 5 days before staining with SRB. Values are means and SEM for the two experiments, each with triplicate cultures at each drug concentration. TEXT PRINTED IN THE PICTURE: Cmpd 2: Ratio 6.75 ± 0.20 | Cmpd 4a: Ratio 3.40 ± 0.22 | Cmpd 7a: Ratio 2.67 ± 0.46

SiHa cells [6] = experiment: IC50 assay (inhibition of proliferation, 4 h exposure, SRB); details: SiHa; for IC50: Homo sapiens, 4 h
Outline: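 Cells exposed to compound for 4 h in titrated medium, then washed and regrown 5 days under standard conditions (oxia, pHe 7.4). Growth read by sulforhodamine B staining; IC50 from 4-parameter logistic regression of duplicate cultures.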

[7] = tested on: MDCK-II cells with forced expression of BCRP or Pgp; experiment: IC50 under anoxia in cells with forced expression of efflux transporters; details: MDCK-II cell lines under anoxia, preliminary experiments
Experimental: expression of BCRP or Pgp.
Cells were seeded at 300 cells/well in DMEM with 10% FBS in 96 well plates in an
anaerobic chamber, allowed to attach for 2 h then exposed to drugs for 4 h under anoxia. Cells were
then washed with fresh medium and grown for 5 days under aerobic conditions before staining with
SRB. Values are mean ± SEM from 2 separate experiments.

O=C(O)CCc1n[n+]([O-])c2ccccc2[n+]1[O-] [Compound 4a, 3-(2-Carboxyethyl)benzo[e][1,2,4]triazine 1,4-Dioxide]
TMR (oxic IC50 pHe 7.4/anoxic IC50 pHe 6.5) (FaDu cells): 9.36 ± 1.68 | IC50 (FaDu cells; pHe 6.5, 4 h, anoxic, read-out: Anoxic IC50): 142 ± 21 µM | IC50 (FaDu cells; pHe 6.5, 4 h, oxic, read-out: Oxic IC50): 507 ± 27 µM | IC50 (FaDu cells; pHe 7.4, 4 h, anoxic, read-out: Anoxic IC50): 325 ± 18 µM | IC50 (FaDu cells; pHe 7.4, 4 h, oxic, read-out: Oxic IC50): 1330 ± 136 µM | PCR Anoxic (IC50 at pHe 7.4/IC50 at pHe 6.5) (FaDu cells; anoxic): 2.29 ± 0.36 | PCR oxic (IC50 at pHe 7.4/IC50 at pHe 6.5) (FaDu cells; oxic): 2.62 ± 0.30 | ACR (oxic IC50/anoxic IC50) (FaDu cells; pHe 6.5): 3.58 ± 0.56 | ACR (oxic IC50/anoxic IC50) (FaDu cells; pHe 7.4): 4.08 ± 0.48 | E^0′ one-electron reduction potential [1]: −399 mV and −399 ± 7 [MV^2+] mV | solubility [2]: 17.1 mM | Effect of pan-inhibition of MCT by phenylpyruvate on sensitivity (SiHa cells [3]): no effect | Maximum intracellular concentration (SiHa cells [4]): 4.1 mM | Uptake (Ci/Ce) at 4 °C relative to 37 °C (SiHa cells [5]; SiHa cell suspensions, data not shown): undetectable | Ci/Ce, pHe 6.5 Obs 5 min (SiHa cells [5]; aerobic SiHa suspensions, pHe 6.5, 5 min): <0.1 | Ci/Ce, pHe 6.5 Obs 60 min (SiHa cells [5]; aerobic SiHa suspensions, pHe 6.5, 60 min): <0.1 | Ci/Ce, pHe 7.4 Obs 5 min (SiHa cells [5]; aerobic SiHa suspensions, pHe 7.4, 5 min): <0.1 | Ci/Ce, pHe 7.4 Obs 60 min (SiHa cells [5]; aerobic SiHa suspensions, pHe 7.4, 60 min): <0.1 | IC50 ratio SiHa / SiHa/POR (fold lower IC50 in POR cell line) (SiHa and SiHa/POR cells): 3.40 ± 0.22 and 3.4 | IC50 (SiHa cells [6]; read-out: Anoxic IC50, SiHa, pHe 6.5, 4 h, anoxic): 97 ± 4 µM | IC50 (SiHa cells [6]; read-out: Anoxic IC50, SiHa, pHe 7.4, 4 h, anoxic): 259 ± 26 µM | IC50 (SiHa cells [6]; read-out: Oxic IC50, SiHa, pHe 6.5, 4 h, oxic): 798 ± 43 µM | IC50 (SiHa cells [6]; read-out: Oxic IC50, SiHa, pHe 7.4, 4 h, oxic): 1950 ± 170 µM | TMR (overall TME ratio = oxic IC50 pHe 7.4/anoxic IC50 pHe 6.5) (SiHa cells [6]): 20.2 ± 2.0 | PCR Anoxic (IC50 at pHe 7.4/IC50 at pHe 6.5) (SiHa cells [6]; anoxic): 2.68 ± 0.29 | PCR oxic (IC50 at pHe 7.4/IC50 at pHe 6.5) (SiHa cells [6]; oxic): 2.45 ± 0.25 | ACR (anoxic cytotoxicity ratio = oxic IC50/anoxic IC50) (SiHa cells [6]; pHe 6.5): 8.26 ± 0.58 | IC50 fold higher than for SN30000 (SiHa cells [6]; pHe 6.5 under anoxia, representative experiment): approximately 50 fold | ACR (anoxic cytotoxicity ratio = oxic IC50/anoxic IC50) (SiHa cells [6]; pHe 7.4): 7.54 ± 1.00 | PCR (pH cytotoxicity ratio) (SiHa cells [6]; representative experiment (Figure 3), oxia and anoxia): ~ 2.5 | ACR (anoxia cytotoxicity ratio) (SiHa cells [6]; representative experiment (Figure 3), pHe 7.4 and 6.5): ~ 8 | Effect of overexpression of BCRP or Pgp efflux transporters on sensitivity [7]: no effect
